Assay results reported in US20260226061A1, “COMPOSITIONS USEFUL FOR MODULATING SPLICING” (Skyhawk Therapeutics, Inc., priority 2023, published 2026).

test system: ATXN3 pre-mRNA; experiment: ATXN3 Quantitative Splicing Assay (qPCR, E4E5 primers/probe, transcripts containing exon 4); assay type: cell-based; conditions: Human neuroblastoma SK-N-MC cells, 24 h treatment, 30 μM to 0.6 nM; read-out: ATXN3 Potency - Splicing E4E5 IC50
Protocol: Human neuroblastoma SK-N-MC cells were plated in 384-well plates at 20,000 cells/well. Twenty-four hours after plating, cells were treated with compounds for 24 h at appropriate concentrations ranging from 30 μM to 0.6 nM (0.3% DMSO). Treated cells were lysed in 15 μL of lysis buffer, and cDNA was synthesized using the Fast Advanced Cells-to-Ct kit. Two μL of each cDNA was used in qPCR reactions to confirm the exon 4 skipped transcripts of ATXN3. A second set of primers/probe E4E5 was used to detect the transcripts containing exon 4. The third set of primers/probe E8E9 was used to detect total gene level of ATXN3. The qPCR reactions were prepared in 384-well plates in 10 μL volume, using TaqMan™ Fast Advanced Master Mix with primers and probes shown in the table below. Reactions were run in a Quant Studio 6 qPCR instrument with default settings.
The primers and probes are listed below in Table 3.

IC50 | Compound
101 to 500 nM | Cc1c(C[C@@H](N)[C@H](C)F)cc2c(NCc3ccccc3F)nc(Cl)nn12 [Compound 8, 6-((2R,3S)-2-amino-3-fluorobutyl)-2-chloro-N-(2-fluorobenzyl)-7-methylpyrrolo[2,1-f][1,2,4]triazin-4-amine]
101 to 500 nM | C[C@H](F)[C@H](N)Cc1cc2c(NCc3ccccc3)nc(Cl)nn2c1Br [Compound 3, 6-((2R,3S)-2-amino-3-fluorobutyl)-N-benzyl-7-bromo-2-chloropyrrolo[2,1-f][1,2,4]triazin-4-amine]
5000 to 10000 nM | Cc1c(C[C@@H](N)CC2CC2)cc2c(NCc3ccccc3F)nc(Cl)nn12 [Compound 14, (S)-6-(2-amino-3-cyclopropylpropyl)-2-chloro-N-(2-fluorobenzyl)-7-methylpyrrolo[2,1-f][1,2,4]triazin-4-amine]
101 to 500 nM | C[C@H](F)[C@H](N)Cc1cc2c(NCc3ccccc3F)nc(Cl)nn2c1Br [Compound 4, 6-((2R,3S)-2-amino-3-fluorobutyl)-7-bromo-2-chloro-N-(2-fluorobenzyl)pyrrolo[2,1-f][1,2,4]triazin-4-amine]
501 to 5000 nM | N[C@H](Cc1cc2c(NCc3ccccc3F)nc(Cl)nn2c1Cl)CC1CC1 [Compound 12, (S)-6-(2-amino-3-cyclopropylpropyl)-2,7-dichloro-N-(2-fluorobenzyl)pyrrolo[2,1-f][1,2,4]triazin-4-amine]
501 to 5000 nM | N[C@H](Cc1cc2c(NCc3ccccc3)nc(Cl)nn2c1Cl)CC1CC1 [Compound 11, (S)-6-(2-amino-3-cyclopropylpropyl)-N-benzyl-2,7-dichloropyrrolo[2,1-f][1,2,4]triazin-4-amine]
501 to 5000 nM | N[C@H](Cc1cc2c(NCc3ccccc3F)nc(Cl)nn2c1Br)CC1CC1 [Compound 10, (S)-6-(2-amino-3-cyclopropylpropyl)-7-bromo-2-chloro-N-(2-fluorobenzyl)pyrrolo[2,1-f][1,2,4]triazin-4-amine]
501 to 5000 nM | Cc1c(C[C@@H](N)[C@H](C)F)cc2c(NCc3ccccc3)nc(Cl)nn12 [Compound 7, 6-((2R,3S)-2-amino-3-fluorobutyl)-N-benzyl-2-chloro-7-methylpyrrolo[2,1-f][1,2,4]triazin-4-amine]
501 to 5000 nM | C[C@H](F)[C@H](N)Cc1cc2c(NCc3ccc(F)cc3)nc(Cl)nn2c1Br [Compound 1, 6-((2R,3S)-2-amino-3-fluorobutyl)-7-bromo-2-chloro-N-(4-fluorobenzyl)pyrrolo[2,1-f][1,2,4]triazin-4-amine]
101 to 500 nM | C[C@H](F)[C@H](N)Cc1cc2c(NCc3ccccc3)nc(Cl)nn2c1Cl [Compound 6, 6-((2R,3S)-2-amino-3-fluorobutyl)-N-benzyl-2,7-dichloropyrrolo[2,1-f][1,2,4]triazin-4-amine]
101 to 500 nM | C[C@H](F)[C@H](N)Cc1cc2c(NCc3ccccc3F)nc(Cl)nn2c1Cl [Compound 5, 6-((2R,3S)-2-amino-3-fluorobutyl)-2,7-dichloro-N-(2-fluorobenzyl)pyrrolo[2,1-f][1,2,4]triazin-4-amine]
501 to 5000 nM | N[C@H](Cc1cc2c(NCc3ccccc3)nc(Cl)nn2c1Br)CC1CC1 [Compound 9, (S)-6-(2-amino-3-cyclopropylpropyl)-N-benzyl-7-bromo-2-chloropyrrolo[2,1-f][1,2,4]triazin-4-amine]
501 to 5000 nM | C[C@H](F)[C@H](N)Cc1cc2c(NCc3ccc(F)cc3)nc(Cl)nn2c1Cl [Compound 2, 6-((2R,3S)-2-amino-3-fluorobutyl)-2,7-dichloro-N-(4-fluorobenzyl)pyrrolo[2,1-f][1,2,4]triazin-4-amine]
5000 to 10000 nM | Cc1c(C[C@@H](N)CC2CC2)cc2c(NCc3ccccc3)nc(Cl)nn12 [Compound 13, (S)-6-(2-amino-3-cyclopropylpropyl)-N-benzyl-2-chloro-7-methylpyrrolo[2,1-f][1,2,4]triazin-4-amine]
